Calls of active or inactive are those of the source. The rule behind the calls is not given here.
Experiments:
[1] = Solubility of compound in DMSO-H2O; type: physicochemical
[2] = Partition coefficient, logP of compound; type: physicochemical; conditions: octanol/water
[3] = Distribution coefficient, logD of compound; type: physicochemical; conditions: octanol/water
[4] = Drug accumulation in tumor to muscle of BALB/c mouse implanted with mouse 4T1 cells at 0.5 mg/kg, iv measured at 4 to 168 hrs; type: ADME, organism-based; conditions: in vivo, time 4-168 hrs
[5] = Ratio of drug level in tumor to muscle of BALB/c mouse implanted with mouse 4T1 cells at 0.5 mg/kg, iv measured at 12 to 24 hrs; type: ADME, organism-based; conditions: in vivo, time 12-24 hrs
[6] = Drug uptake in human NCI-H226 cells assessed as increase in red fluorescence intensity at 5 uM incubated for 30 mins by CY7 staining based microscopic analysis; type: ADME, cell-based; conditions: nci-h226, 0.5 h
[7] = Drug uptake in human NCI-H226 cells assessed as increase in green fluorescence intensity at 5 uM incubated for 30 mins by F-actin staining staining based microscopic analysis; type: ADME, cell-based; conditions: nci-h226, 0.5 h
[8] = Drug uptake in mouse 4T1 cells assessed as increase in red fluorescence intensity at 5 uM incubated for 30 mins by CY7 staining based microscopic analysis; type: ADME, cell-based; conditions: 4t1, 0.5 h
[9] = Drug uptake in mouse 4T1 cells assessed as increase in green fluorescence intensity at 5 uM incubated for 30 mins by F-actin staining staining based microscopic analysis; type: ADME, cell-based; conditions: 4t1, 0.5 h
[10] = Photostability of compound in DMSO-H2O incubated for 1 hr irradiated with deuterium lamp by absorbance based analysis; type: physicochemical; conditions: read-out: Stability
[11] = Stability of compound in DMSO-H2O incubated for 1 hr by absorbance based analysis; type: physicochemical
[12] = Stability of compound in DMSO-H2O incubated for 150 mins by absorbance based analysis; type: physicochemical; conditions: 2.5 h
[13] = Antioxidant activity of compound in presence of ROS; type: functional
[14] = Antioxidant activity of compound in presence of RNS; type: functional
[15] = Antioxidant activity of compound in presence of RSS; type: functional
[16] = Antioxidant activity of compound in presence of Ca2+; type: functional
[17] = Antioxidant activity of compound in presence of Fe3+; type: functional
[18] = Antioxidant activity of compound in presence of NH4+; type: functional
[19] = Antioxidant activity of compound in presence of HSO3-; type: functional
[20] = Antioxidant activity of compound in presence of SO4; type: functional
[21] = Antioxidant activity of compound in presence of CO3; type: functional
[22] = Antioxidant activity of compound in presence of HCO3-; type: functional
[23] = Antioxidant activity of compound in presence of Cl-; type: functional
[24] = Antioxidant activity of compound in presence of Br-; type: functional
[25] = Antioxidant activity of compound in presence of H2O2-; type: functional
[26] = Antioxidant activity of compound in presence of ClO-; type: functional
[27] = Antioxidant activity of compound in presence of OH; type: functional
[28] = Antioxidant activity of compound in presence of TBHP; type: functional
[29] = Antioxidant activity of compound in presence of ONOO-; type: functional
[30] = Antioxidant activity of compound in presence of NO2; type: functional
[31] = Antioxidant activity of compound in presence of Glutathione; type: functional
[32] = Antioxidant activity of compound in presence of L-Cysteine; type: functional
[33] = Antioxidant activity of compound in presence of HCHO; type: functional
[34] = Antioxidant activity of compound in presence of […]; type: functional
[35] = Drug accumulation in BALB/c mouse tumor implanted with mouse 4T1 cells assessed as increase in fluorescence intensity at 0.5 mg/kg, iv measured at 48 hrs by imaging based analysis; type: ADME, organism-based, Neoplasm; conditions: in vivo
[36] = Drug accumulation in BALB/c mouse tumor xenografted with human NCI-H520 cells assessed as increase in fluorescence intensity at 0.5 mg/kg, iv measured at 96 hrs by imaging based analysis; type: ADME, organism-based, Neoplasm; conditions: in vivo
[37] = Cytotoxicity against human Primary lung fibroblast assessed as decrease in cell viability up to 5 uM incubated for 24 hrs by CCK-8 assay; type: toxicity, cell-based
[38] = Cytotoxicity against human Primary lung fibroblast assessed as decrease in cell viability up to 10 uM incubated for 24 hrs by CCK-8 assay; type: toxicity, cell-based
[39] = tested on: NCI-H226; assay: Cytotoxicity against human NCI-H226 assessed as decrease in cell viability up to 10 uM incubated for 24 hrs by CCK-8 assay; type: functional, cell-based
[40] = tested on: NIH3T3; assay: Cytotoxicity against mouse 3T3 cells assessed as decrease in cell viability up to 5 uM incubated for 24 hrs by CCK-8 assay; type: toxicity, cell-based; conditions: nih3t3, 24 h
[41] = Drug uptake in human NCI-H226 cells assessed as increase in fluorescence intensity incubated for 24 hrs by fluorescence based microscopic analysis; type: ADME, cell-based; conditions: nci-h226, 24 h
[42] = Drug localization in mitochondria of human NCI-H226 cell by MitoTracker Red based NIR confocal microscopic analysis; type: ADME
[43] = tested on: NCI-H250; assay: Antitumor activity against human […] cells xenografted in BALB/c mouse assessed as tumor growth inhibition 0.5 mg/kg, iv measured for 5 days; type: functional, organism-based; conditions: time 5.0 day
[44] = tested on: 4T1; assay: Antitumor activity against mouse 4T1 cells implanted in BALB/c mouse assessed as tumor growth inhibition 5 mg/kg, iv measured for 11 days; type: functional; conditions: 4T1, 264 h, time 11 day, read-out: TGI
[45] = Toxicity in BALB/c mouse implanted with mouse 4T1 cells assessed as survival rate at 5 mg/kg, iv measured for 11 days; type: organism-based; conditions: in vivo, time 11 day

Work on `CCN1/C(=C/C=C2\CCCC(/C=C/C3=[N+](CCCOc4ccc(C(=O)O)cc4)c4ccccc4C3(C)C)=C2Cl)C(C)(C)c2ccccc21.[Br-]` yielded a solubility [1] of 0.17 mg/mL, a logP [2] of 6.05 and a logD [3] of 4.34. The Drug uptake [4] was “Active”, the Ratio [5] was over 5 and the Drug uptake [6] was “Active”. The Drug uptake [7] was “Active”, the Drug uptake [8] was “Active” and the Drug uptake [9] was “Active”. For the same compound, the remaining at 1 h [10] was 96.9%, the Stability [11] was “Stable” and the Stability [12] was “Stable”. For the same compound, the Activity [13] was “Active”, the Activity [14] was “Active” and the Activity [15] was “Active”. The Activity [16] was “Active”, the Activity [17] was “Active” and the Activity [18] was “Active”. For the same compound, the Activity [19] was “Active”, the Activity [20] was “Active” and the Activity [21] was “Active”. The Activity [22] was “Active”, the Activity [23] was “Active” and the Activity [24] was “Active”. For the same compound, the Activity [25] was “Active”, the Activity [26] was “Active” and the Activity [27] was “Active”. The Activity [28] was “Active”, the Activity [29] was “Active” and the Activity [30] was “Active”. For the same compound, the Activity [31] was “Active”, the Activity [32] was “Active” and the Activity [33] was “Active”. For the same compound, the Activity [34] was “Active”, the Drug uptake [35] was “Active” and the Drug uptake [36] was “Active”. For the same compound, the Activity [37] was “Non-toxic”, the Activity [38] was “Non-toxic” and the Activity [39] was “Active”. For the same compound, the Activity [40] was over 80%, the Drug uptake [41] was “Active” and the Drug uptake [42] was “Active”. For the same compound, the TGI [43] was “Active”, the inhibition in vivo at 5 mg/kg [44] was about 60% and the survival at 264 h [45] was 100%.

From ChEMBL document CHEMBL6134863, “Novel Mitochondria-Targeted Asymmetric Heptamethine Cyanine Dye for Cancer Targeted NIR Imaging and Potent Necrosis and Senescence Induction with Prolonged Retention” (J Med Chem, 2025)
